Data on 2 compounds can be found in ChEMBL document CHEMBL4765465, “Photoactive Bifunctional Degraders: Precision Tools To Regulate Protein Stability” (J Med Chem, 2020).

Data set [1] can be described thus: Half life of compound by UV-Visible spectrophotometric method. The format is physicochemical.
A further data set relates to CWR22R. Nature of the data set: Growth inhibition of human 22Rv1 cells preincubated for 15 mins followed by UV irradiation and measured after 72 hrs by Celltiter-Glo assay. Type of data set: functional. The note with it: time 72.25 hrs.

For the compound `COc1cc(COC(=O)N2C(=O)CCC(N3C(=O)c4cccc(OCC(=O)NCCCCNC(=O)C[C@@H]5N=C(c6ccc(Cl)cc6)c6c(sc(C)c6C)-n6c(C)nnc65)c4C3=O)C2=O)c([N+](=O)[O-])cc1OC` (some centres not stated), in data set [1], the half-life came to 58 min. Turning to `Cc1sc2c(c1C)C(c1ccc(Cl)cc1)=N[C@@H](CC(=O)NCCOCCOCCNC(=O)COc1cccc3c1C(=O)N(C1CCC(=O)N(COC(C)c4cc5c(cc4[N+](=O)[O-])OCO5)C1=O)C3=O)c1nnc(C)n1-2` (some centres not stated), the “growth inhibition (GI)” value in the data set with CWR22R is “<=39%”.
